Measurements: patent publication US6949383B2 (priority 1998, dated 2005)

What was measured:
dnaQ = assay type: cell-based, Escherichia coli
Wild-Type = assay type: cell-based, Escherichia coli
Super-Amp-resistant dnaQ = assay type: cell-based, Escherichia coli
[1] = test system: Super-Stre.-resisting dnaQ; assay: Minimum growth inhibiting concentration (MIC) of antibiotic substances; assay type: cell-based, Escherichia coli
dnaQ49 strain [2] = assay: Drug resistance reached by repeated mutagenesis and selection (Example 2); assay type: cell-based, Escherichia coli
dnaQ+ strain (wild type) = assay type: cell-based, Escherichia coli
[3] = test system: Super-Nali.-resisting dnaQ; assay: Minimum growth inhibiting concentration (MIC) of antibiotic substances; assay type: cell-based, Escherichia coli
dnaQ49 strain [4] = assay: Ampicillin concentration-survival (colony forming) after mutagenesis runs; assay type: cell-based, Escherichia coli; conditions: for AC: Ampicillin Concentration (maximum concentration for ampicillin resistance): dnaQ49 strain
wild type (dnaQ+ strain) = assay: Ampicillin concentration-survival (colony forming) after mutagenesis runs, with or without MNNG; assay type: cell-based, Escherichia coli; conditions: for Maximum concentration for ampicillin resistance: wild type and MNNG wild type
[5] = test system: ampicillin-resistant Escherichia coli; conditions: resistance due to plasmid; cited from earlier work
[6] = mutagenesis treatment for 1 time
[7] = mutagenesis treatments for 2 times
[8] = mutagenesis treatments for 3 times
[9] = mutagenesis treatments for 4 times
[10] = mutagenesis treatments for 5 times
[11] = mutagenesis treatments for 6 times
[12] = mutagenesis treatments for 7 times
[13] = mutagenesis treatments for 8 times
[14] = mutagenesis treatments for 9 times
[15] = mutagenesis treatments for 10 times
[16] = mutagenesis treatments for 11 times
[17] = mutagenesis treatments for 12 times
[18] = mutagenesis treatments for 13 times
[19] = mutagenesis treatments for 14 times
[20] = mutagenesis treatments for 15 times
[21] = mutagenesis treatments for 16 times
[22] = mutagenesis treatments for 17 times
[23] = mutagenesis treatments for 18 times
[24] = mutagenesis treatments for 19 times
[25] = mutagenesis treatments for 20 times
[26] = mutagenesis treatments for 21 times
[27] = mutagenesis treatments for 22 times
[28] = mutagenesis treatments for 23 times

[H]/N=C(/N)N[C@H]1[C@H](O)[C@@H](O)[C@H](O[C@@H]2O[C@@H](C)[C@](O)(C=O)[C@H]2O[C@@H]2O[C@@H](CO)[C@H](O)[C@@H](O)[C@@H]2NC)[C@@H](N/C(N)=N\[H])[C@@H]1O [Streptomycin]
Minimum growth inhibiting concentration (MIC) (dnaQ): 1 | Minimum growth inhibiting concentration (MIC) (Wild-Type): 1 | Minimum growth inhibiting concentration (MIC) (Super-Amp-resistant dnaQ): 0.5 | Minimum growth inhibiting concentration (MIC) [1]: 2048 | Concentration of Streptomycin (dnaQ49 strain [2]; [6]): 1 µg/mL | Concentration of Streptomycin (dnaQ49 strain [2]; [7]): 10 µg/mL | Concentration of Streptomycin (dnaQ49 strain [2]; [8]): 100 µg/mL | Concentration of Streptomycin (dnaQ49 strain [2]; [9]): 1000 µg/mL | Concentration of Streptomycin (dnaQ49 strain [2]; [10]): 3000 µg/mL | Concentration of Streptomycin (dnaQ49 strain [2]; [11]): 4000 µg/mL | Concentration of Streptomycin (dnaQ49 strain [2]; [12]): 6000 µg/mL | Concentration of Streptomycin (dnaQ49 strain [2]; [13]): 8000 µg/mL | Concentration of Streptomycin (dnaQ49 strain [2]; [14]): 9000 µg/mL | Concentration of Streptomycin (dnaQ49 strain [2]; [15]): 10000 µg/mL | Concentration of Streptomycin (dnaQ49 strain [2]; [16]): 12000 µg/mL | Concentration of Streptomycin (dnaQ49 strain [2]; [17]): 14000 µg/mL | Concentration of Streptomycin (dnaQ49 strain [2]; [18]): 16000 µg/mL | Concentration of Streptomycin (dnaQ49 strain [2]; [19]): 17000 µg/mL | Concentration of Streptomycin (dnaQ49 strain [2]; [20]): 18000 µg/mL | Concentration of Streptomycin (dnaQ49 strain [2]; [21]): 19000 µg/mL | Concentration of Streptomycin (dnaQ49 strain [2]; [22]): 20000 µg/mL | Concentration of Streptomycin (dnaQ49 strain [2]; [23]): 21000 µg/mL | Concentration of Streptomycin (dnaQ49 strain [2]; [24]): 22000 µg/mL | Concentration of Streptomycin (dnaQ49 strain [2]; [25]): 23000 µg/mL | Concentration of Streptomycin (dnaQ49 strain [2]; [26]): 24000 µg/mL | Concentration of Streptomycin (dnaQ49 strain [2]; [27]): 25000 µg/mL | Concentration of Streptomycin (dnaQ49 strain [2]; [28]): 26000 µg/mL | Concentration of Streptomycin (dnaQ49 strain [2]; mutagenesis treatments for 23 times, listed as streptomycin): 26,000 μg/ml | Growth of dnaQ+ strain (wild type) in the presence of drug (dnaQ+ strain (wild type)): *3) dnaQ+ strain (wild type) did not grow in the presence of 10 μg/ml of streptomycin.

CO/N=C(\C(=O)N[C@@H]1C(=O)N2C(C(=O)O)=C(COC(C)=O)CS[C@H]12)c1csc(N)n1 [Cefotaxime]
Minimum growth inhibiting concentration (MIC) (dnaQ): 0.0313 | Minimum growth inhibiting concentration (MIC) (Wild-Type): 0.0156 | Minimum growth inhibiting concentration (MIC) (Super-Amp-resistant dnaQ): 64 | Resistance of ampicillin-resistant dnaQ49 strain to other antibiotic substances (MIC investigation) (Super-Amp-resistant dnaQ): strong resistance

O=C(N[C@H](CO)[C@H](O)c1ccc([N+](=O)[O-])cc1)C(Cl)Cl [Chloramphenicol]
Minimum growth inhibiting concentration (MIC) (dnaQ): 1 | Minimum growth inhibiting concentration (MIC) (Wild-Type): 0.5 | Minimum growth inhibiting concentration (MIC) (Super-Amp-resistant dnaQ): 0.5

CCn1cc(C(=O)O)c(=O)c2ccc(C)nc21 [Nalidixic acid]
Minimum growth inhibiting concentration (MIC) (dnaQ): 1 | Minimum growth inhibiting concentration (MIC) (Wild-Type): 2 | Minimum growth inhibiting concentration (MIC) (Super-Amp-resistant dnaQ): 0.5 | Minimum growth inhibiting concentration (MIC) [3]: 2048 | Concentration of Nalidixic Acid (dnaQ49 strain [2]; [6]): 1 µg/mL | Concentration of Nalidixic Acid (dnaQ49 strain [2]; [7]): 10 µg/mL | Concentration of Nalidixic Acid (dnaQ49 strain [2]; [8]): 100 µg/mL | Concentration of Nalidixic Acid (dnaQ49 strain [2]; [9]): 200 µg/mL | Concentration of Nalidixic Acid (dnaQ49 strain [2]; [10]): 400 µg/mL | Concentration of Nalidixic Acid (dnaQ49 strain [2]; [11]): 600 µg/mL | Concentration of Nalidixic Acid (dnaQ49 strain [2]; [12]): 1000 µg/mL | Concentration of Nalidixic Acid (dnaQ49 strain [2]; [13]): 1100 µg/mL | Concentration of Nalidixic Acid (dnaQ49 strain [2]; [14]): 1200 µg/mL | Concentration of Nalidixic Acid (dnaQ49 strain [2]; [15]): 1300 µg/mL | Concentration of Nalidixic Acid (dnaQ49 strain [2]; [16]): 1400 µg/mL | Concentration of Nalidixic Acid (dnaQ49 strain [2]; [17]): 1600 µg/mL | Concentration of Nalidixic Acid (dnaQ49 strain [2]; [18]): 1800 µg/mL | Concentration of Nalidixic Acid (dnaQ49 strain [2]; [19]): 2000 µg/mL | Concentration of Nalidixic Acid (dnaQ49 strain [2]; [20]): 2500 µg/mL | Concentration of Nalidixic Acid (dnaQ49 strain [2]; [21]): 3000 µg/mL | Concentration of Nalidixic Acid (dnaQ49 strain [2]; [22]): 4000 µg/mL | Concentration of Nalidixic Acid (dnaQ49 strain [2]; [23]): 5000 µg/mL | Concentration of Nalidixic Acid (dnaQ49 strain [2]; [24]): 6000 µg/mL | Concentration of Nalidixic Acid (dnaQ49 strain [2]; [25]): 6200 µg/mL | Concentration of Nalidixic Acid (dnaQ49 strain [2]; [26]): 6400 µg/mL | Concentration of Nalidixic Acid (dnaQ49 strain [2]; [27]): 6600 µg/mL | Concentration of Nalidixic Acid (dnaQ49 strain [2]; [28]): 6800 µg/mL | Concentration of Nalidixic Acid (dnaQ49 strain [2]; mutagenesis treatments for 24 times, listed as Nalidixic Acid): 7000 µg/mL | Concentration of Nalidixic Acid (dnaQ49 strain [2]; mutagenesis treatments for 24 times, listed as nalidixic acid): 7,000 μg/ml | Growth of dnaQ+ strain (wild type) in the presence of drug (dnaQ+ strain (wild type)): *3) dnaQ+ strain (wild type) did not grow in the presence of 10 μg/ml of nalidixic acid.

CC1(C)S[C@@H]2[C@H](NC(=O)[C@H](N)c3ccccc3)C(=O)N2[C@H]1C(=O)O [Ampicillin]
Ampicillin resistance of strain obtained (dnaQ49 strain [4]; another dnaQ49 strain, five mutagenesis treatments (FIG. 7)): about 10,000 g/ml | Ampicillin resistance from concentration-survival curve (dnaQ49 strain [4]; dnaQ49 strain before introduction of mutation, compared with wild type, 24° C., two days): slightly stronger ampicillin resistance than the wild type | AC: Ampicillin Concentration (maximum concentration for ampicillin resistance) (dnaQ49 strain [4]; 1st Run of mutagenesis): 30 µg/mL | AC: Ampicillin Concentration (maximum concentration for ampicillin resistance) (dnaQ49 strain [4]; 2nd Run of mutagenesis): 300 µg/mL | AC: Ampicillin Concentration (maximum concentration for ampicillin resistance) (dnaQ49 strain [4]; 3rd Run of mutagenesis): 1000 µg/mL | AC: Ampicillin Concentration (maximum concentration for ampicillin resistance) (dnaQ49 strain [4]; 4th Run of mutagenesis): 3000 µg/mL | AC: Ampicillin Concentration (maximum concentration for ampicillin resistance) (dnaQ49 strain [4]; 5th Run of mutagenesis): 6000 µg/mL | AC: Ampicillin Concentration (maximum concentration for ampicillin resistance) (dnaQ49 strain [4]; 5th Run of mutagenesis, listed as ampicillin): about 6,000 μg/ml | Ampicillin resistance of resistant microorganism obtained (wild type (dnaQ+ strain); MNNG-treated group, low-concentration treatment): 300 µg/mL | AC: Ampicillin Concentration (maximum concentration for ampicillin resistance) (wild type (dnaQ+ strain); Wild type (MNNG Concn 0), 1st Run): 3 µg/mL | AC: Ampicillin Concentration (maximum concentration for ampicillin resistance) (wild type (dnaQ+ strain); Wild type (MNNG Concn 0), 2nd Run): 10 µg/mL | AC: Ampicillin Concentration (maximum concentration for ampicillin resistance) (wild type (dnaQ+ strain); Wild type (MNNG Concn 0), 3rd Run): 10 µg/mL | AC: Ampicillin Concentration (maximum concentration for ampicillin resistance) (wild type (dnaQ+ strain); Wild type (MNNG Concn 0), 4th Run): 10 µg/mL | AC: Ampicillin Concentration (maximum concentration for ampicillin resistance) (wild type (dnaQ+ strain); Wild type (MNNG Concn 0), 5th Run): 60 µg/mL | AC: Ampicillin Concentration (maximum concentration for ampicillin resistance) (wild type (dnaQ+ strain); Wild type (MNNG Concn 1), 1st Run): 3 µg/mL | AC: Ampicillin Concentration (maximum concentration for ampicillin resistance) (wild type (dnaQ+ strain); Wild type (MNNG Concn 1), 2nd Run): 10 µg/mL | AC: Ampicillin Concentration (maximum concentration for ampicillin resistance) (wild type (dnaQ+ strain); Wild type (MNNG Concn 1), 3rd Run): 10 µg/mL | AC: Ampicillin Concentration (maximum concentration for ampicillin resistance) (wild type (dnaQ+ strain); Wild type (MNNG Concn 1), 4th Run): 10 µg/mL | AC: Ampicillin Concentration (maximum concentration for ampicillin resistance) (wild type (dnaQ+ strain); Wild type (MNNG Concn 1), 5th Run): 60 µg/mL | AC: Ampicillin Concentration (maximum concentration for ampicillin resistance) (wild type (dnaQ+ strain); Wild type (MNNG Concn 3), 1st Run): 3 µg/mL | AC: Ampicillin Concentration (maximum concentration for ampicillin resistance) (wild type (dnaQ+ strain); Wild type (MNNG Concn 3), 2nd Run): 30 µg/mL | AC: Ampicillin Concentration (maximum concentration for ampicillin resistance) (wild type (dnaQ+ strain); Wild type (MNNG Concn 3), 3rd Run): 100 µg/mL | AC: Ampicillin Concentration (maximum concentration for ampicillin resistance) (wild type (dnaQ+ strain); Wild type (MNNG Concn 3), 4th Run): 300 µg/mL | AC: Ampicillin Concentration (maximum concentration for ampicillin resistance) (wild type (dnaQ+ strain); Wild type (MNNG Concn 6), 1st Run): 3 µg/mL | AC: Ampicillin Concentration (maximum concentration for ampicillin resistance) (wild type (dnaQ+ strain); Wild type (MNNG Concn 6), 2nd Run): 6 µg/mL | AC: Ampicillin Concentration (maximum concentration for ampicillin resistance) (wild type (dnaQ+ strain); Wild type (MNNG Concn 6), 3rd Run): 10 µg/mL | AC: Ampicillin Concentration (maximum concentration for ampicillin resistance) (wild type (dnaQ+ strain); Wild type (MNNG Concn 6), 4th Run): 10 µg/mL | AC: Ampicillin Concentration (maximum concentration for ampicillin resistance) (wild type (dnaQ+ strain); Wild type (MNNG Concn 6), 5th Run): 30 µg/mL | AC: Ampicillin Concentration (maximum concentration for ampicillin resistance) (wild type (dnaQ+ strain); Wild type (MNNG Concn 10), 1st Run): 6 µg/mL | AC: Ampicillin Concentration (maximum concentration for ampicillin resistance) (wild type (dnaQ+ strain); Wild type (MNNG Concn 30), 1st Run): 3 µg/mL | Maximum concentration for ampicillin resistance (wild type (dnaQ+ strain); after first mutagenesis): 3˜6 μg/ml | Maximum concentration for ampicillin resistance (wild type (dnaQ+ strain); after second mutagenesis): 6˜30 μg/ml | Minimum growth inhibiting concentration (MIC) (dnaQ): 2 | Minimum growth inhibiting concentration (MIC) (Wild-Type): 1 | Minimum growth inhibiting concentration (MIC) (Super-Amp-resistant dnaQ): 2048 | Resistance concentration of ampicillin-resistant Escherichia coli reported up to now [5]: 1,500 μg/ml

CO[C@H]1/C=C/O[C@@]2(C)Oc3c(C)c(O)c4c(O)c(c(/C=N/N5CCN(C)CC5)c(O)c4c3C2=O)NC(=O)/C(C)=C\C=C\[C@H](C)[C@H](O)[C@@H](C)[C@@H](O)[C@@H](C)[C@H](OC(C)=O)[C@@H]1C [Rifampicin]
Minimum growth inhibiting concentration (MIC) (dnaQ): 8 | Minimum growth inhibiting concentration (MIC) (Wild-Type): 4 | Minimum growth inhibiting concentration (MIC) (Super-Amp-resistant dnaQ): 2
